According to patent US7605156B2, “Methods for the use of inhibitors of cytosolic phospholipase A2” (Wyeth, priority 2001, dated 2009):

Columns and labels:
[1] = test system: Adult male Wistar rats; test: Transient middle cerebral artery occlusion (tMCAO); assay type: in vivo
Protocol: Adult male Wistar rats (Charles River, Wilmington, Mass.) 290-310 g were anesthetized with 3% isoflurane in 70% nitrous oxide and 30% oxygen through a nose cone. Temperature was maintained at 37° C. throughout the surgery using a heating lamp. Transient MCAO was induced for 90 min using the intraluminal suture method (see Longa, E. L. et al., 1989 Stroke 20:294-297). Briefly, an 18 mm length of 4-0 monofilament nylon suture coated with 0.1% poly-L-lysine (Belayev, L. et al, 1996 Stroke 27:1616-1623) and a flame-rounded tip was inserted into the external carotid artery and advanced through the internal carotid to occlude the origin of the middle cerebral artery (MCAO). Ninety minutes later the rats were re-anesthetized and the suture was withdrawn. Rats were sacrificed at 72 hrs post-MCAO.
Behavioral score: Animals are tested for motor deficits using a modified Bederson score. Briefly, animals are tested for flexion of the contralateral forelimb, twisting of the torso, decreased resistance to lateral push, circling to the contralateral side when holding the tail, and spontaneous circling. Each animal is scored 1 point for each behavior detected for a total of 5 points. Each animal is score at 90 min, just prior to reperfusion, at 24 hrs, 48 hrs and 72 hrs following MCAO.
Body weight is taken prior to MCAO surgery for baseline and 24 hrs, 48 hrs and 72 hrs after MCAO.
(§1) After sacrifice, the brains are extracted and placed in a rat brain matrix and 2 mm coronal slabs are taken from 4 mm caudal to the frontal pole and extending to the hindbrain. Sections are immersed in the active mitochondrial stain TTC at 37° C. for 10 min to delineate the lesion. Digitized sections are collected on the MCID image analysis system (Imaging Research, Inc. Ontario, Canada), area measurements are determined and a total lesion volume is calculated (area×distance in mm).

[2] = test system: Adult male Wistar rats; test: Permanent middle cerebral artery occlusion (pMCAO); assay type: in vivo; conditions: dosed four times; 72 hours post ischemia
Protocol: Adult male Wistar rats (Charles River, Wilmington, Mass.) 270-300 g were anesthetized with 3% isoflurane in 70% nitrous oxide and 30% oxygen through a nose cone. Temperature was maintained at 37° C. throughout the surgery using a heating lamp. Permanent occlusion of MCAO was induced by electrocauterization of the distal portion of the MCA (via a craniotomy) with a 120 min ligation of both carotid arteries to interrupt collateral circulation (see Chen, S. T., et al, 1986 Stroke 17:738-743). Rats were sacrificed 72 hours post ischemia for measurement of infarct volume.
as §1

[3] = test system: Primary cerebellar granule neurons; test: Oxygen-glucose deprivation (OGD) in cultured neurons; assay type: cell-based, rat; conditions: various concentrations, added 60 minutes before OGD; 2 hours OGD, read 24 hours later
Protocol: Primary cerebellar granule neurons were isolated from P5-8 rat pups. Briefly, cerebelli were collected and pooled in ice-cold phosphate buffer saline (PBS) without Ca^2+ and Mg^2+. The tissue was finely chopped and transferred to an enzymatic dissociation media containing 20 IU/ml papain in Earle's balanced salt solution (Worthington Biochemical, Freehold, N.J.) and incubated for 30 minutes at 37° C. After enzymatic dissociation, the papain solution was aspirated and the tissue mechanically triturated with a fire-polished Pasteur pipette in complete media [Neurobasal Medium with B-27 supplement (Gibco, Grand Island, N.Y.), penicillin/streptomycin, aphidicolin, glutamate, potassium chloride] containing 2,000 IU/ml DNase and 10 mg/ml ovomucoid protease inhibitor. Single-cell suspensions in complete media were plated on pre-coated poly-L-ornithine/laminin 24-well plates (Becton-Dickinson, Bedford, Mass.) at a density of 5.0×10^5 cells/well. Cells were maintained for two weeks prior to experimentation.
Cultures were treated with Compound A at various concentrations, 60 minutes before OGD. Media was removed and replaced with deoxygenated buffer in an anaerobic chamber (80% nitrogen, 10% hydrogen, 10% carbon dioxide gas mixture). […] Cell death was determined by measuring lactate dehydrogenase release into the media 24 hours later (Roche Biochemicals). […]

[4] = test system: B6 mice; test: Experimental autoimmune encephalomyelitis (EAE), animal model of multiple sclerosis; assay type: in vivo; conditions: orally, 100 mg/kg, twice/day
Protocol: Six groups of B6 mice were immunized with MOG/CFA and injected with pertussis toxin to induce experimental autoimmune encephalomyelitis (EAE), an animal model of Multiple sclerosis. […] Another three groups of mice were treated with vehicle, Compound A or Compound B starting on the day of EAE onset (day 15) (orally, 100 mg/kg, twice/day). […] The results are shown in FIG. 1, wherein mean clinical score is a mean of clinical evaluation of each animal for that particular day. Animals are scored as follows: • 0 no clinical signs of EAE (no paralysis) • 1—paralysis of tail • 2—paralysis of tail and partial hind leg paralysis • 3—paralysis of tail And complete hind leg paralysis • 4—paralysis of tail, complete hind leg paralysis and a partial front leg paralysis • 5—moribund animal (all four limbs paralyzed, lack of responsiveness, these mice were immediately euthanized).

[5] = test system: Primary dopaminergic neurons; test: MPP+ exposure in dopaminergic neurons (3H-dopamine uptake); assay type: cell-based, rat; conditions: 10 μM MPP+ for 60 minutes, read 24 hours later
Protocol: Primary dopaminergic neurons were isolated from E15 rat embryos as described in Pong K., et al., (1997) J. Neurochem. 69 986-994. Briefly, the ventral mesencephalon was isolated and tissue was pooled in ice-cold phosphate buffer saline (PBS) without Ca^2+ and Mg^2+. The tissue was transferred to an enzymatic dissociation media containing 20 IU/ml papain in Earle's balanced salt solution (Worthington Biochemical, Freehold, N.J.) and incubated for 30 minutes at 37° C. After enzymatic dissociation, the papain solution was aspirated and the tissue mechanically triturated with a fire-polished Pasteur pipette in complete media [Neurobasal Medium with B-27 supplement (Gibco, Grand Island, N.Y.), penicillin/streptomycin, aphidicolin, glutamate] containing 2,000 IU/ml DNase and 10 mg/ml ovomucoid protease inhibitor. Single-cell suspensions in complete media were plated on pre-coated poly-L-ornithine/laminin 24-well plates (Becton-Dickinson, Bedford, Mass.) at a density of 5.0×10^5 cells/well. […]
Cultures were treated with various concentrations of Compound A and GDNF (glial-cell line derived neurotrophic factor, a positive control) hours before exposure to the neurotoxin MPP^+, the toxic metabolite of MPTP. […] Dopaminergic neuron viability was determined 24 hours later by measuring ^3H-dopamine uptake as described in Pong et al., 1997, supra.

[6] = 10 mg/kg and 30 mg/kg four times

Cc1cccc(C)c1CS(=O)(=O)NCCc1c(CCCc2ccc(C(=O)O)cc2)c2cc(Cl)ccc2n1C(c1ccccc1)c1ccccc1 [Example 52, 4-{3-[1-benzhydryl-5-chloro-2-(2-{[(2,6-dimethylbenzyl)-sulfonyl]amino}ethyl)-1H-indol-3-yl]propyl}benzoic acid]
behavioral deficits (modified Bederson score) [1, 6]: effectively reduced behavioral deficits
weight loss following MCAO [1, 6]: reduced weight loss
infarct volume ([1]; 10 mg/kg or 30 mg/kg four times (90 min, […], 24 hr, 48 hr post occlusion)): significant level of neuroprotection
therapeutically relevant window of opportunity ([1]; 30 mg/kg 3 times, first dose 4 or 6 hrs post occlusion, measuring infarct volume and neurological deficits): at least 6 hrs
significant treatment window ([1]; 30 mg/kg 3 times, first dose 4 or 6 hrs post occlusion, measuring weight loss): 4 h
infarct volume [2]: significantly reduces infarct volume
OGD-induced cell death (lactate dehydrogenase release) [3]: effective in protecting cultured neurons from OGD-induced cell death
EAE clinical score: prevention of EAE ([4]; from the day of immunization): prevent EAE
EAE clinical score: clinical severity of EAE ([4]; starting on the day of EAE onset (day 15)): reduce clinical severity of EAE
dopaminergic neuron viability (3H-dopamine uptake) [5]: effective to protect dopaminergic neuron viability against MPP^+
